{"source": "patent US20250228857A1", "about": "“BIOSENSOR AND USES THEREOF” (The Johns Hopkins University, priority 2022, published 2025)", "key": {"[1]": {"system": "NRVMs", "assay": "NRVM cell viability after 48 hour compound incubation", "type": "cell-based, rat", "details": "48-hour exposure", "from_the_text": "FIGS. 3A-3H show which drugs in clinical use inhibit CaMKII in cardiac cells. (FIG. 3A) Fluorescence imaging timelapse of CaMKAR expressing neonatal rat ventricular cardiomyocytes (NRVMs) and (FIG. 3B) summary data during 3 Hz field pacing (n=1,065-1,160 cells). R/R0=R normalized to mean R prior to stimulation. Scale bar=50 μm. […] CaMKII inhibition % defined by min-max normalization between untreated and maximally stimulated CaMKAR signal. […] (FIG. 3E) Summary data from D at 60 seconds post stimulation. […] (FIG. 3H) Cell viability after 48 hour compound incubation. All measurements are taken from >3 biological replicates. ns=p>0.05, ****p<0.0001; significance determined via one-way ANOVA and Dunnett's multiple comparisons test (FIGS. 3C,3 E); two-way ANOVA and Tukey's multiple comparisons test (FIG. 3F).\nRat hippocampal neurons were cultured as previously described (38)."}, "[2]": {"system": "type 1 diabetic mice", "assay": "Atrial fibrillation induction by atrial burst pacing in type 1 diabetic mice", "type": "in vivo, mouse", "details": "75 mg/kg i.p. single dose 10 minutes prior", "from_the_text": "(§1) (FIG. 7A) Representative type 1 diabetic mouse tracings immediately after atrial burst pacing. […] (FIG. 7B) Atrial fibrillation (AF) inducibility percentage from mice in FIG. 7A. Number of mice analyzed per group shown in each column: 9/16 vehicle treated mice had AF vs. 2/15 Rux-treated mice. (FIG. 7C) Sequential atrial fibrillation (AF) inducibility in OGT-transgenic mice. […] Number of mice analyzed per group shown in each column (Vehicle=5/5 had AF, Rux=1/5 had AF). […] Statistical comparisons were performed using 2-tailed Fischer's exact test (FIGS. 7B, 7C); two-way ANOVA with Sidak's multiple comparison's test (FIG. 7D); paired Student's T-test (FIG. 7E); *p<0.05, ****p<0.0001.\nDiabetic Mouse Model. Type-1 diabetes (T1D) was induced as previously described (57) in adult male C57BL/6J mice (The Jackson Laboratory, ME, USA) by a single intraperitoneal injection of streptozotocin (STZ)(185 mg/kg, Sigma-Aldrich) dissolved in a citrate buffer (citric acid and sodium citrate, pH 4.0) after a six hour fast. Mice were maintained on normal chow diet (NCD) (7913 irradiated NIH-31 modified 6% mouse/rat diet—15 kg, Envigo, Indianapolis, TN). Mice were considered diabetic if blood glucose level was ≥300 mg/dl via tail vein blood checked with a glucometer—OneTouch Ultra 2 (LifeScan, Zug, Switzerland). […]"}, "[3]": {"system": "OGT-transgenic mice", "assay": "Sequential atrial fibrillation inducibility in OGT-transgenic mice", "type": "in vivo, mouse", "details": "75 mg/kg prior to second pacing", "from_the_text": "as §1\n75 mg/kg dosing was chosen due to previous studies determining this dose to be equivalent to the 20-25 mg dose in humans based on plasma concentration (47-49). In vivo electrophysiology (EP) studies were performed as previously reported (57) in mice anesthetized with isoflurane (2% for induction and 1.5% for maintenance of anesthesia; Isotec 100 Series Isoflurane Vaporizer; Harvard Apparatus). AF was defined as the occurrence of rapid and fragmented atrial electrograms with irregular AV-nodal conduction and ventricular rhythm for at least 1 second. If 1 or more atrial bursts (out of 5) were an AF episode, the mouse was considered to have inducible AF. […]"}, "[4]": {"system": "CREM-IbAC-X mice", "assay": "Spontaneous atrial fibrillation in CREM-IbAC-X mice", "type": "in vivo, mouse", "details": "75 mg/kg i.p., 10 minutes after treatment", "from_the_text": "as §1\nSpontaneous AF. 8-months-old CREM-IbAC-X mice were monitored via surface ECG for 15 minutes to establish the baseline for time spent in atrial fibrillation (AF). AF was defined as loss of p-waves and irregularly irregular R-R intervals for >10 seconds. Each mouse was monitored at least twice with more than 24 hours interval between two recordings. After establishing the baseline, the mice were injected with placebo (10% DMSO, 2.5% Tween-20 in saline; i.p. injections) and the 15-minute ECGs were recorded between 10-25 minutes post injection."}, "[5]": {"system": "C57BL/6J mice", "assay": "Novel object recognition test (NORT)", "type": "in vivo, mouse", "details": "75 or 41 mg/kg; single dose 1 hour prior or twice daily for 7 days"}, "[6]": {"system": "C57BL/6J mice", "assay": "Y maze spatial recognition memory test", "type": "in vivo, mouse"}, "[7]": {"system": "C57BL/6J mice", "assay": "Barnes maze", "type": "in vivo, mouse", "details": "150 mg/kg/day", "procedure": "(FIG. 20B) Latency to escape the Barnes maze during the probe trial (day 6). There was no significant deficit in ruxolitinib (Rux) treated mice over vehicle (Veh). Datapoints represent individual mice. (FIGS. 20C-20E) Latency to escape maze, primary errors, and total errors of mice subjected to Barnes maze during the 4 training trials. Statistical testing shown below each graph with proportion and significance of variance by each parameter. Data shown as mean±SEM. Significance was determined via Student's T-test (FIG. 20B), or two-way ANOVA (FIGS. 20C-20E).\nFor the Barnes maze: A brightly lit (1100 lux) Barnes maze with 20 evenly spaced holes and an escape box placed under one of the holes was used (Maze Engineers). During training, each mouse was placed in the center of the maze and allowed to explore the maze for 3 minutes per trial. During the trial, the number of head dips and the latency to find and then enter the escape box were recorded. Mice were given two trials per day for four days. 24 hours following training, mice were given a probe trial, with the number of head dips and latency to find and then enter the escape box recorded."}, "[8]": {"details": "rats; cited from earlier work"}, "[9]": {"details": "in vivo; cited from earlier work"}, "[10]": {"details": "in vivo; cited from earlier work", "remark": "listed apart in the source"}, "[11]": {"details": "cited from earlier work"}, "[12]": {"system": "293T cells", "assay": "Cell viability in 293T cells (CellTiter-Glo 2.0)", "details": "12-hour exposure"}, "[13]": {"system": "WT and RyR2^R176Q/WT mice", "assay": "ECG heart rate and electrophysiologic parameters in WT and RyR2^R176Q/WT mice"}, "[14]": {"details": "long-term ruxolitinib, median exposures 11.1 and 34.4 months"}}, "note": "Where two headings read alike, the source gives them in different places.", "data": [{"smiles": "N#CC[C@H](C1CCCC1)n1cc(-c2ncnc3[nH]ccc23)cn1", "note": "[ruxolitinib]", "values": [{"measurement": "well tolerated concentration", "setting": "[1]", "result": "up to 100 μM"}, {"measurement": "mice with AF / mice analyzed", "setting": "[2]", "result": "2/15"}, {"measurement": "mice with AF / mice analyzed", "setting": "[3]", "result": "1/5"}, {"measurement": "percent time in AF", "setting": "[4]", "result": 33.63, "unit": "%"}, {"measurement": "novel object recognition, percent time spent with the novel object", "setting": "[5]", "result": "Neither single dose (1 hour prior) nor multiple doses (twice daily for 7 days) of ruxolitinib (75 or 41 mg/kg) caused significant differences in novel object recognition"}, {"measurement": "decreased preference for the novel arm", "setting": "[6]; higher dose single dosing and both multiple dosing cohorts", "result": "not seen"}, {"measurement": "preference for the novel arm", "setting": "[6]; single dosing, lower dose (41 mg/kg)", "result": "decreased preference for the novel arm"}, {"measurement": "latency, primary errors, and total errors during training trials", "setting": "[7]", "result": "no significant effect"}, {"measurement": "maze solving latency at study endpoint (probe trial)", "setting": "[7]; day 6", "result": "no difference"}, {"measurement": "plasma concentration over brain concentration", "setting": "[8]", "result": 29, "unit": "fold"}, {"measurement": "CNS penetrance", "setting": "[9]", "result": "3.5% (64)"}, {"measurement": "maximum human plasma concentration", "setting": "[10]", "result": 1.51, "unit": "µM"}, {"measurement": "Maximum dose used in humans", "setting": "[11]; FDA-approved", "result": "25 mg BID (96)"}, {"measurement": "Maximum dose used in humans", "setting": "[11]; Healthy volunteers", "result": "200 mg QD (76)"}, {"measurement": "well-tolerated dose", "setting": "[11]; healthy volunteers, short-term dosing", "result": "up to 200 mg"}, {"measurement": "patients discontinuing treatment due to anemia", "setting": "[11]; [14]", "result": "< 2.6", "unit": "%"}, {"measurement": "patients discontinuing treatment due to thrombocytopenia", "setting": "[11]; [14]", "result": "< 3.6", "unit": "%"}, {"measurement": "cognitive deficits in patients", "setting": "[11]; prescribed for over a decade", "result": "without reported overt cognitive deficits"}, {"measurement": "toxicity compared with AS100397", "setting": "[12]", "result": "less toxic"}, {"measurement": "PR", "setting": "[13]; RyR^R176Q/WT mice, Baseline", "result": "39.5 ± 1", "unit": "ms"}, {"measurement": "QTc", "setting": "[13]; RyR^R176Q/WT mice, Baseline", "result": "36.5 ± 5", "unit": "ms"}, {"measurement": "PR", "setting": "[13]; RyR^R176Q/WT mice, EPI", "result": "42.2 ± 4", "unit": "ms"}, {"measurement": "QTc", "setting": "[13]; RyR^R176Q/WT mice, EPI", "result": "49.5 ± 4", "unit": "ms"}, {"measurement": "PR", "setting": "[13]; RyR^R176Q/WT mice, ISO", "result": "43.1 ± 3", "unit": "ms"}, {"measurement": "QTc", "setting": "[13]; RyR^R176Q/WT mice, ISO", "result": "51.6 ± 5", "unit": "ms"}, {"measurement": "PR", "setting": "[13]; WT mice, Baseline", "result": "43.4 ± 4", "unit": "ms"}, {"measurement": "QTc", "setting": "[13]; WT mice, Baseline", "result": "48.6 ± 6", "unit": "ms"}, {"measurement": "PR", "setting": "[13]; WT mice, EPI", "result": "45.9 ± 2.7", "unit": "ms"}, {"measurement": "QTc", "setting": "[13]; WT mice, EPI", "result": "55.7 ± 8", "unit": "ms"}, {"measurement": "PR", "setting": "[13]; WT mice, ISO", "result": "43.8 ± 4", "unit": "ms"}, {"measurement": "QTc", "setting": "[13]; WT mice, ISO", "result": "49.2 ± 4", "unit": "ms"}]}]}
